pKi: −log10 of the molar value. Read-outs that look alike come from different tables or passages of the source.
Columns and labels:
[1] = tested on: mouse model of schizophrenia induced by MK-801; experiment: MK-801 model experiment (open-field motion); details: for ED50: Mus musculus, 1.5 h, read-out: Effect on the total distance of open-field motion in mouse model of schizophrenia induced by MK-801, ED50; for Improvement rate on open-field motion of mice compared with cariprazine: MK-801 model, oral
Procedure: An acute mode of administration was used in the experiment. The experimental mice were randomly divided into groups and put into a spontaneous activity box to adapt for 5-10 minutes before the experiment. […] The data were expressed as mean±standard error (Mean±SEM), and were analyzed using GraphPad Prism software, and data analysis was performed using t-test, and a significant difference was considered to exist when P<0.05.

[2] = tested on: mouse schizophrenic model induced by Apo.; experiment: Apomorphine model experiment (stereotyped motion); assay type: in vivo, C57BL/6 mice; details: for ED50: Mus musculus, single oral administration, apomorphine 5 mg/kg i.p., mice, read-out: Inhibition of total stereotyped motion of mouse schizophrenic model induced by Apo., ED50; for Effect (ED50) on the stereotyped behavior of mice compared with cariprazine: apomorphine model, oral
Procedure: 1. Apomorphine Model Experiment
1) 4 point, continuous biting;
2) 3 point, the cage lid was bit at least once during observation;
3) 2 point, the cage chassis or cage wall was licked at least once during observation;
4) 1 point, compulsive sniffing and bowing activities were appeared;
5) 0 point, no of the above activities.
The total score of the mice was calculated for the above behaviors within 70 min, and the improvement rate was calculated according to the following formula.
During the experiment, the clinical response symptoms of the animals were recorded.
All data were expressed as x±SEM, processed with the 11.5 software statistical package, and t-test and one-way analysis of variance were performed for the comparison of the means of the two samples, with P<0.05 as a significant difference.

[3] = Acute toxicity experiment, single oral administration; details: ICR, mouse, in vivo
Procedure: Acute Toxicity Experiments of the Compound
2) Solvent preparation: An appropriate amount of Tween-80 was weighed and diluted with deionized water to a concentration of […] (g/v) Tween-80.
4) Route of administration: The administration route of the test samples and the solvent control group (0.5% Tween-80) was oral administration.
5) Frequency of administration: Single administration, fasting overnight before administration.
6) Dosing capacity: 20 mL/kg.
[…]; the observation period was 2 to 6 days, twice a day, once in the morning and once in the afternoon.
The observation content includes, but is not limited to, general condition, behavioral activity, gait posture, eye, mouth, nose, gastrointestinal tract, skin hair, urogenital tract.
Body weight data were expressed as mean±standard deviation, and were compared between groups using Levene's test and one-way ANOVA. If there were differences, Dunnet t test was used.
In the MTD test, the tolerance of the animals to the drug was investigated, and the maximum tolerated dose was reached when the animals were dying frequently.

[4] = molecular target: D2 receptor (Homo sapiens, UniProt P14416); experiment: Dopamine D2 receptor binding test
Procedure: Dopamine D2 Receptor Binding Test
In this experiment, HEK293 cells were transfected with plasmid vector containing D2 receptor protein gene, and calcium phosphate transfection method was used and after transfection, the cells were cultured in a culture solution containing G418, and the cell monoclonal and radioligand binding experiments were selected, and finally a stable cell line which could stably express D2 receptor protein was obtained.
HeK-293 cells were infected with recombinant viruses containing the above various genes respectively, and after 48-72 hours, the receptor proteins were expressed in large quantities on the membrane, and the cells were centrifuged at 1000 rpm for 5 min and then the culture solution was discarded, and the cells were collected, and stored in a −20° C. refrigerator for later use. Tris-HCl reaction buffer (pH=7.5) was used to resuspend in the experiment.
On the Millipore cell sample collector, the mixture was quickly filtrated under reduced pressure through GF/C glass fiber filter paper, and eluted with 3 mL of eluent (50 mMTris-HCl, pH 7.5) for 3 times, then dried under microwave for 5 to 6 min. The filter paper was moved into a 0.5 mL centrifuge tube, and 500 μL of lipid-soluble scintillation solution was added. The mixture was kept in the dark for more than 30 min, and the radioactivity intensity was determined by counting. […] Two replicate tubes were made for each experiment of compound, and two separate experiments were performed.
Two tubes were tested for each concentration and two independent tests were performed for each compound.

[5] = molecular target: T1, H1 receptor (Homo sapiens, UniProt P35367); experiment: H1 receptor binding test; details: 1 nM [3H]pyrilamine, HEK-293 cell membrane homogenate; read-out: Affinity of the compound for H1 receptor (Ki value, nM) H1
T1 construct: expressed in transfected cells; host or cells: HEK-293
Procedure: Non-specific binding was determined in the presence of 1 μM pyrilamine.

[6] = molecular target: T2, 5-HT2A receptor (Homo sapiens, UniProt P28223); experiment: 5-HT2A receptor binding test; details: for Ki: [3H]-Ketanserin, 5-HT2A receptor expressed in HEK293 cells, read-out: Affinity of the compound for each receptor (Ki value, nM) 5-HT2A
T2 construct: expressed in transfected cells; host or cells: HEK293
Description: 5-HT2A Receptor Binding Test
Beckman LS-6500 multifunctional liquid scintillation counter.
Tris-HCl reaction buffer (pH 7.7) was used to resuspend in the experiment.

[7] = molecular target: T3, human recombinant D3 receptor (Homo sapiens, UniProt P35462); experiment: Dopamine D3 receptor binding test; details: [3H]methyl-spiperone 0.3 nM, human recombinant D3 receptor expressed in CHO cells; read-out: Affinity of the compound for each receptor (Ki value, nM) D3
T3 construct: expressed in transfected cells; host or cells: CHO
Procedure: Dopamine D3 Receptor Binding Test
[^3H]methyl-spiperone (0.3 nM) was used as the ligand, and (+)-butaclamol (10 μM) was used to determine the non-specific binding, and the binding assay was performed on human recombinant D3 receptor (expressed in CHO cells).

[8] = single oral administration, ICR mice, read-out: MTD (maximum tolerance)

T3 sequence (P35462 whole entry): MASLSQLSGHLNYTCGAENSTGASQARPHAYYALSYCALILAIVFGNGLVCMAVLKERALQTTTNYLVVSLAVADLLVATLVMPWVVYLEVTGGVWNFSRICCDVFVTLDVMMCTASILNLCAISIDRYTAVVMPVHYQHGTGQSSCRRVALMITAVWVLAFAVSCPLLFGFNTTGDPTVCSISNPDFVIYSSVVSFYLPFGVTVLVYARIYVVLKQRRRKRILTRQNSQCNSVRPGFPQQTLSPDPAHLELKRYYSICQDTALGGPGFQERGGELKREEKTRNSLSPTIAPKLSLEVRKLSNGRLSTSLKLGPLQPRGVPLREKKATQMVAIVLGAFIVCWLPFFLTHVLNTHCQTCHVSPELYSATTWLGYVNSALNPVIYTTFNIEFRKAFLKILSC
T1 sequence (P35367 whole entry): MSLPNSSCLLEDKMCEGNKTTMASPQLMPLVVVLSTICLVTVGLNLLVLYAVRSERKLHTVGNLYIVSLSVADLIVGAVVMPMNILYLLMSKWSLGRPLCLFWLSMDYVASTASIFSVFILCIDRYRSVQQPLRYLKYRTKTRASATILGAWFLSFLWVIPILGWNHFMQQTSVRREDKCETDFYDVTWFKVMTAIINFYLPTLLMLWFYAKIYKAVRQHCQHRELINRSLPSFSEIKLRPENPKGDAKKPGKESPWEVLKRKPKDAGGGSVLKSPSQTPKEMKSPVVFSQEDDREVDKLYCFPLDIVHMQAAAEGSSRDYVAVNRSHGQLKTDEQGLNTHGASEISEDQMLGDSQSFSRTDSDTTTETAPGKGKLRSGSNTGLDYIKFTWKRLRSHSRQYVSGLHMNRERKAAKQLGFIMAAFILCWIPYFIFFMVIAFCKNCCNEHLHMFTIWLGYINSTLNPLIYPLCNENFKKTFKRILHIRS
D2 receptor, sequence (P14416 whole entry): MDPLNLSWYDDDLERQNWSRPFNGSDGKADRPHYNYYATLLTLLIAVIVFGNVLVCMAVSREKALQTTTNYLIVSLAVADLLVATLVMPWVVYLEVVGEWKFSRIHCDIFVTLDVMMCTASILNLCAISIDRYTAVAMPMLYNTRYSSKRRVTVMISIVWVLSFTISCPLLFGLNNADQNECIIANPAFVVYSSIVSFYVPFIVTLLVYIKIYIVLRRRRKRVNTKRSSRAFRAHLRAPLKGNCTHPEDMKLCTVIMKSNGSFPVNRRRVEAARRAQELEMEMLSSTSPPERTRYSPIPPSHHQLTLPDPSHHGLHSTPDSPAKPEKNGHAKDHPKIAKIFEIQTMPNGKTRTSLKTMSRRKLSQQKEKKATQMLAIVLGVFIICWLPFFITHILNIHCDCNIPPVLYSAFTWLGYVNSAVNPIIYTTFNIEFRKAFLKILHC
T2 sequence (P28223 whole entry): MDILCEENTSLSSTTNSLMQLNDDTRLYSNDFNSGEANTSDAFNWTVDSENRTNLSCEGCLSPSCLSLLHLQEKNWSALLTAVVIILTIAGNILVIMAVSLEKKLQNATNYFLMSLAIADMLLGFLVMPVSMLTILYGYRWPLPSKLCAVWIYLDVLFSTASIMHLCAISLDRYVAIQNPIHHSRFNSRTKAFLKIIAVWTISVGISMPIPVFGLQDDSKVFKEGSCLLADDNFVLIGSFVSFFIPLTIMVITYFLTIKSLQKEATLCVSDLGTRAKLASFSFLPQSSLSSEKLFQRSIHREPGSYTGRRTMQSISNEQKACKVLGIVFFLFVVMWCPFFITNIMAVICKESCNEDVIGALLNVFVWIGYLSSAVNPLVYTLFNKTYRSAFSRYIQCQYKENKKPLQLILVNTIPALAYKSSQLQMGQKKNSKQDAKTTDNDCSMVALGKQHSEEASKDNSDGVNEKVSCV

Row | Structure (SMILES) | pKi [4] | Ki [5] [nM] | Ki [7] [nM] | Ki [6] [nM] | ED50 [1] [mg/kg] | ED50 [2] [mg/kg] | MTD [3] [mg/kg] | Effect (ED50) on the stereotyped behavior of mice compared with cariprazine [2] | MTD [3, 8] [mg/kg] | pKi [6] | Improvement rate on open-field motion of mice compared with cariprazine [1]
1 | CN(C)C(=O)N[C@H]1CC[C@H](CCN2CCN(c3cccc(Cl)c3Cl)CC2)CC1 [Cariprazine, cariprazine, reference compound] | – | – | – | – | 0.15 | 0.3 | 320 | – | – | – | –
2 | CCOC(=O)N[C@H]1CC[C@H](CCN2CCN(c3cc(-c4ccccc4)cc(N4CCOCC4)n3)CC2)CC1 [Compound I-3, ethyl ((trans)-4-(2-(4-(6-morpholino-4-phenylpyridin-2-yl)piperazin-1-yl)ethyl)cyclohexyl)carbamate] | 8.60 | > 1000 | 0.08 | – | 0.33 | 0.19 | – | better effects | ≥ 400 | 8.68 | –
3 | CN(C)C(=O)N[C@H]1CC[C@H](CCN2CCN(c3cc(-c4ccc[nH]4)cc(N4CCOCC4)n3)CC2)CC1 [VII-4, 1,1-dimethyl-3-(trans-4-(2-(4-(6-morpholino-4-(1H-pyrrol-2-yl)pyridin-2-yl)piperazin-1-yl)ethyl)cyclohexyl)urea] | 9.22 | > 1000 | 0.03 | 1.1 | 0.25 | 0.2 | – | better effects | ≥ 400 | – | –
4 | CCCN(C)C(=O)N[C@H]1CC[C@H](CCN2CCN(c3cc(-c4ccc(F)cc4)cc(N4CCOCC4)n3)CC2)CC1 [II-6, 3-(trans-4-(2-(4-(4-(4-fluorophenyl)-6-morpholinopyridin-2-yl)piperazin-1-yl)ethyl)cyclohexyl)-1-methyl-1-propylurea] | 9.00 | > 1000 | 0.04 | 1.3 | 0.1 | 0.13 | – | better effects | – | – | better
5 | O=C(N[C@H]1CC[C@H](CCN2CCN(c3cc(-c4cccs4)cc(N4CCOCC4)n3)CC2)CC1)N1CCCC1 [VI-5, N-(trans-4-(2-(4-(6-morpholino-4-(thiophen-2-yl)pyridin-2-yl)piperazin-1-yl)ethyl)cyclohexyl)tetrahydropyrrole-1-carboxamide] | 9.00 | > 1000 | 0.07 | 1.1 | 0.08 | 0.16 | – | better effects | > 2000 | – | –
6 | CNC(=O)N[C@H]1CC[C@H](CCN2CCN(c3cc(-c4ccc(F)cc4)cc(N4CCOCC4)n3)CC2)CC1 [II-4, 1-(trans-4-(2-(4-(4-(4-fluorophenyl)-6-morpholinopyridin-2-yl)piperazin-1-yl)ethyl)cyclohexyl)-3-methylurea] | 8.55 | 540 | 0.3 | 0.9 | – | – | – | – | – | – | –
7 | O=C(N[C@H]1CC[C@H](CCN2CCN(c3cc(-c4ccccc4)cc(N4CCOCC4)n3)CC2)CC1)c1ccco1 [Compound I-6, N-((trans)-4-(2-(4-(6-morpholino-4-phenylpyridin-2-yl)piperazin-1-yl)ethyl)cyclohexyl)furan-2-carboxamide] | 9.85 | > 1000 | 0.02 | 1 | 0.2 | 0.43 | – | – | > 2000 | – | –
8 | O=C(N[C@H]1CC[C@H](CCN2CCN(c3cc(-c4cccnc4)cc(N4CCOCC4)n3)CC2)CC1)c1ccco1 [IV-2] | 9.05 | > 1000 | 0.03 | 1.1 | 0.05 | 0.1 | – | better effects | > 2000 | – | better
9 | CN(C)C(=O)N[C@H]1CC[C@H](CCN2CCN(c3cc(-c4ccccc4)cc(N4CCOCC4)n3)CC2)CC1 [Compound I-7, 1,1-dimethyl-3-(trans-4-(2-(4-(6-morpholino-4-phenylpyridin-2-yl)piperazin-1-yl)ethyl)cyclohexyl)urea] | 9.92 | 420 | 0.01 | 0.2 | – | – | – | – | – | – | –
10 | O=C(N[C@H]1CC[C@H](CCN2CCN(c3cc(-c4ccccc4)cc(N4CCOCC4)n3)CC2)CC1)C1CC1 [Compound I-4, N-((trans)-4-(2-(4-(6-morpholino-4-phenylpyridin-2-yl)piperazin-1-yl)ethyl)cyclohexyl)cyclopropanecarboxamide] | 8.70 | 550 | 0.05 | 3.9 | – | – | – | – | – | – | –
11 | O=C(N[C@H]1CC[C@H](CCN2CCN(c3cc(-c4ccco4)cc(N4CCOCC4)n3)CC2)CC1)N1CCOCC1 [Compound V-5, N-(trans-4-(2-(4-(4-(furan-2-yl)-6-morpholinopyridin-2-yl)piperazin-1-yl)ethyl)cyclohexyl)morpholine-4-carboxamide] | 9.00 | > 1000 | 0.04 | 2.9 | 0.51 | 0.78 | – | – | ≥ 400 | – | –
12 | O=C(N[C@H]1CC[C@H](CCN2CCN(c3cc(-c4ccc(F)cc4)cc(N4CCOCC4)n3)CC2)CC1)c1cccnc1 [II-2, N-(trans-4-(2-(4-(4-(4-fluorophenyl)-6-morpholinopyridin-2-yl)piperazin-1-yl)ethyl)cyclohexyl)nicotinamide] | 9.05 | > 1000 | 0.07 | 2.4 | 0.07 | 0.08 | – | better effects | ≥ 400 | – | better

Continued, in another order:

Row | pKi [4] | Ki [5] [nM] | Ki [7] [nM] | Ki [6] [nM] | Structure (SMILES) | ED50 [1] [mg/kg] | ED50 [2] [mg/kg] | MTD [3] [mg/kg] | Effect (ED50) on the stereotyped behavior of mice compared with cariprazine [2] | MTD [3, 8] [mg/kg] | pKi [6] | Improvement rate on open-field motion of mice compared with cariprazine [1]
13 | 8.49 | > 1000 | 0.2 | 10.8 | COc1ccc(-c2cc(N3CCOCC3)nc(N3CCN(CC[C@H]4CC[C@H](NC(=O)N5CCCC5)CC4)CC3)c2)cc1 [III-1, N-(trans-4-(2-(4-(4-(4-methoxyphenyl)-6-morpholinopyridin-2-yl)piperazin-1-yl)ethyl)cyclohexyl)tetrahydropyrrole-1-carboxamide] | – | – | – | – | – | – | –
14 | 8.77 | 670 | 0.08 | 8.7 | CC(C)N(C(=O)N[C@H]1CC[C@H](CCN2CCN(c3cc(-c4cccnc4)cc(N4CCOCC4)n3)CC2)CC1)C(C)C [IV-4] | – | – | – | – | – | – | –
15 | 8.59 | 600 | 0.1 | 0.7 | O=C(N[C@H]1CC[C@H](CCN2CCN(c3cc(-c4ccc[nH]4)cc(N4CCOCC4)n3)CC2)CC1)c1ccco1 [VII-2, N-(trans-4-(2-(4-(6-morpholino-4-(1H-pyrrol-2-yl)pyridin-2-yl)piperazin-1-yl)ethyl)cyclohexyl)furan-2-carboxamide] | – | – | – | – | – | – | –
16 | 9.10 | > 1000 | 0.05 | 1.6 | CC(=O)N[C@H]1CC[C@H](CCN2CCN(c3cc(-c4cccs4)cc(N4CCOCC4)n3)CC2)CC1 [VI-1, N-(trans-4-(2-(4-(6-morpholino-4-(thiophen-2-yl)pyridin-2-yl)piperazin-1-yl)ethyl)cyclohexyl)acetamide] | 0.12 | 0.55 | – | – | – | – | better
17 | 8.72 | 740 | 0.8 | 1.7 | O=C(N[C@H]1CC[C@H](CCN2CCN(c3cc(-c4cccs4)cc(N4CCOCC4)n3)CC2)CC1)c1cccnc1 [VI-3, N-(trans-4-(2-(4-(6-morpholino-4-(thiophen-2-yl)pyridin-2-yl)piperazin-1-yl)ethyl)cyclohexyl)nicotinamide] | – | – | – | – | – | – | –
